Here are results for ten compounds from publication PMC5899049 (ACS infectious diseases, 2017).

≈ marks a conversion by molar mass, not a printed value. Where two headings read alike, the source gives them in different places.

Test [1] has as its target Recombinant P. falciparum IspD (Plasmodium falciparum, UniProt Q8I273). Description: Pf IspD enzymatic assay. The class given is biochemical. As to conditions: for IC50: read-out: PfIspD IC50, measured at 60 nM Pf IspD; for PfIspD % inhibition at 1 μM (1000 nM): 1 μM (1000 nM) compound, 60 nM Pf IspD, NI = no inhibition.
The test system of test [2] is E. coli, strain BL21(DE3). Briefly: E. coli growth inhibition assay. The class given is cell-based, Escherichia coli. The note with it: for % E. coli growth inhibition (18 h): NI = no inhibition.
The test system of test [3] is P. falciparum, Dd2 strain (MRA-150). As to conditions: read-out: P. falciparum growth inhibition IC50; Dd2 (MRA-150) strain; data reported previously; cited from earlier work.
Test [4] concerns MEP pathway metabolites in parasites starting at ring stage. As to conditions: 5 μM FOS for 10 h starting at ring stage; ref 24 (Zhang et al.); cited from earlier work.
Test [5] deals with MEP pathway intermediates (CDP-ME, MEcPP, IPP) in P. falciparum schizont stage parasites. Description: MEP pathway metabolite profiling by LC-MS/MS. The test is classed as cell-based, Plasmodium falciparum. As to conditions: 1 μM 1a or 7a, 10 μM FOS; for Decrease in cellular levels of Pf IspD product CDP-ME: schizont stage; for Reduction of the IPP levels: 4 h treatment.
The test system of test [6] is P. falciparum (Dd2 strain). Briefly: Cytocidal. As to conditions: LC50 could not be determined. The test is classed as cell-based, Plasmodium falciparum.
For the next test, the target named is T1, Human IspD (hIspD) (Homo sapiens, UniProt A4D126).
T1 sequence (A4D126 1-451): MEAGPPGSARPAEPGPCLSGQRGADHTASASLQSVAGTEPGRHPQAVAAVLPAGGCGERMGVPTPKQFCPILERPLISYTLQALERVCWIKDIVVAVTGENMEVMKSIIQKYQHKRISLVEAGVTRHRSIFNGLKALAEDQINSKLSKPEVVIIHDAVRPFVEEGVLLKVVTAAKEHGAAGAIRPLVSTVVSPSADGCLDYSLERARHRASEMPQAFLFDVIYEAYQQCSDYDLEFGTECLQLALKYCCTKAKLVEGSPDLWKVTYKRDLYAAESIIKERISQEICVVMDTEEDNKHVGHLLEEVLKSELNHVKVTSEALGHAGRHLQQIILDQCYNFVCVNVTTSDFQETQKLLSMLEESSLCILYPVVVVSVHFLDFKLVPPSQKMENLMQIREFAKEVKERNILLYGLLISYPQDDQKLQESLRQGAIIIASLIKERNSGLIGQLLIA
Briefly: Human IspD enzymatic assay. The class given is biochemical. As to conditions: 2 μM hIspD, 37 °C, 16 h.

The test system of test [7] is E. coli, strain BL21(DE3). As to conditions: 500 μM; NI = no inhibition; data reported previously; cited from earlier work.
In test [8] the test system is Escherichia coli IspD (EcIspD). The note with it: concentrations up to 10 μM; cited from earlier work.
A further test has as its target P. falciparum IspD. The note with it: read-out: P. falciparum IspD Ki; cited from earlier work.
In test [9] the test system is Mycobacterium tuberculosis IspD. As to conditions: concentrations up to 10 μM; cited from earlier work.
The test system of test [10] is P. falciparum, Dd2 strain (MRA-150). Briefly: P. falciparum growth inhibition. The note with it: Plasmodium falciparum, DD2, 72 h, read-out: IC50 value at 72 h.
Test [11] relates to Arabidopsis thaliania IspD. The note with it: concentrations up to 10 μM; cited from earlier work.

In the case of `CNC(=O)C1Cc2c([nH]c3ccccc23)C(c2ccc(Br)cc2Cl)N1` (stereo not shown) [7j], the IC50 (usually the concentration that gives 50% inhibition) in test [1] came out at 21 ± 6 nM.

Consider `CCNC(=O)C1Cc2c([nH]c3ccccc23)C(c2ccc(Cl)cc2Cl)N1` (stereo not shown) [8a], for which the IC50 in test [1] is around 1000 nM.

As to `Clc1ccc(C2NCCc3c2[nH]c2ccccc32)c(Cl)c1` (stereo not shown) [11a], the “PfIspD % inhibition at 1 μM (1000 nM)” value in test [1] worked out at 7% inh. @ 1000. Moreover, the “% E. coli growth inhibition (18 h)” value in [2] (250 μM) was 45 ± 10 @ 250 μM %.

In the case of `O=C(O)[C@@H]1Cc2c([nH]c3ccccc23)[C@H](c2ccc(Cl)cc2Cl)N1` [5a], the IC50 in test [3] is above 10000 nM. The “% E. coli growth inhibition (18 h)” value in test [2] (125 μM) was “no effect”.

On to `O=CN(O)CCCP(=O)(O)O` [FOS, fosmidomycin, reference compound], for which the inhibition (usually the drop in the measured response relative to a control, in per cent) at 10 µM in test [1] (read-out: PfIspD % inhibition at 10 μM, 10 μM compound, 60 nM Pf IspD) was around 4%. Further, the IC50 in test [3] is 880 ± 70 nM. For the same compound, the “Levels of CDP-ME” value in test [4] is recorded as “reduced levels”. Further, the MIC in [2] (Escherichia coli, 18 h, read-out: E. coli minimum inhibitory concentration (MIC)) was found to be 11.99 ± 0.02 µM (≈ 2.2 µg/mL). The “Decrease in cellular levels of Pf IspD product CDP-ME” value in test [5] (2 h exposure) and in test [5] (4 h exposure) was “did not cause significant reduction” each time. Further, the “Reduction of the IPP levels” value in [5] is above 90%.

For `COc1ccc(C2NC(C(=O)O)Cc3c2[nH]c2ccccc32)cc1OC` (stereo not shown) [1x], the IC50 in [3] was above 20000 nM.

`O=C(O)[C@H]1Cc2c([nH]c3ccccc23)[C@@H](c2ccc(Cl)cc2Cl)N1` (single isomer, unassigned; ent-5a) [ent-5a]: the “PfIspD % inhibition at 1 μM (1000 nM)” value in test [1] is on record as 27 ± 5% inh. @ 1 μM. Besides, in [3], the IC50 was 3000 ± 200 nM. For the same compound, the “% E. coli growth inhibition (18 h)” value in test [2] (250 μM) is given as 18 ± 6 @ 250 μM %.

For the compound `CNC(=O)C1Cc2c([nH]c3ccccc23)C(c2ccc(Cl)cc2Br)N1` (stereo not shown) [7k], the IC50 in test [1] is 31 ± 4 nM.

As to `O=C(O)[C@H]1Cc2c([nH]c3ccccc23)[C@H](c2ccc(Cl)cc2Cl)N1` (single isomer, unassigned; ent-1a) [ent-1a], in test [3], the IC50 is above 10000 nM. Moreover, the “% E. coli growth inhibition (18 h)” value in [2] (250 μM) is recorded as “no effect”.

Regarding `O=C(O)[C@@H]1Cc2c([nH]c3ccccc23)[C@@H](c2ccc(Cl)cc2Cl)N1` [1a, (1R,3S)-MMV008138], the values for the IC50 in test [3] and in test [10] were 250 ± 70 nM and 350 ± 30 nM, respectively. Further, the “Parasite growth at 72 h after wash-out” value in test [6] (6 h incubation) and in test [6] (12 h incubation) was “grow similarly to untreated controls” throughout. Moreover, the “Human IspD CDP-ribitol formation” value at Human IspD (hIspD) (20 μM 1a) and at Human IspD (hIspD) (200 μM 1a) was “not inhibited” in each case. The “% E. coli growth inhibition (18 h)” value in test [7] is listed as “no effect”. In [8], the “Inhibition of Escherichia coli IspD” value is recorded as “did not inhibit”. Further, the Ki (in general, the equilibrium dissociation constant of an inhibitor or competing ligand from its target) at P. falciparum IspD is 7 to 13 nM. Also, the “Inhibition of Mycobacterium tuberculosis IspD” value in test [9] is “did not inhibit”. The “Inhibition of Arabidopsis thaliania IspD” value in test [11] is listed as “did not inhibit”. Also, the “Decrease in cellular levels of Pf IspD product CDP-ME” value in test [5] (2 h exposure) is 67 ± 2%; in test [5] (4 h exposure), 84 ± 8%. The “Reduction of the IPP levels” value in [5] is given as above 90%.
